We go through five molecules from ChEMBL document CHEMBL1145498, “A systematic interaction map of validated kinase inhibitors with Ser/Thr kinases” (Proc Natl Acad Sci U S A, 2007).

The target in experiment [1] is STE20-like serine/threonine-protein kinase (Homo sapiens) (UniProt Q9H2G2).
The target in experiment [2] is Dual specificity mitogen-activated protein kinase kinase 2 (Homo sapiens, UniProt P36507).
Experiment [3] has as its target Serine/threonine-protein kinase 16 (Homo sapiens) (UniProt O75716).
Experiment [4] has as its target Serine/threonine-protein kinase 38 (Homo sapiens) (UniProt Q15208).
The target in experiment [5] is T1, 3-phosphoinositide-dependent protein kinase 1 (Homo sapiens) (UniProt O15530).
T1 sequence (whole entry): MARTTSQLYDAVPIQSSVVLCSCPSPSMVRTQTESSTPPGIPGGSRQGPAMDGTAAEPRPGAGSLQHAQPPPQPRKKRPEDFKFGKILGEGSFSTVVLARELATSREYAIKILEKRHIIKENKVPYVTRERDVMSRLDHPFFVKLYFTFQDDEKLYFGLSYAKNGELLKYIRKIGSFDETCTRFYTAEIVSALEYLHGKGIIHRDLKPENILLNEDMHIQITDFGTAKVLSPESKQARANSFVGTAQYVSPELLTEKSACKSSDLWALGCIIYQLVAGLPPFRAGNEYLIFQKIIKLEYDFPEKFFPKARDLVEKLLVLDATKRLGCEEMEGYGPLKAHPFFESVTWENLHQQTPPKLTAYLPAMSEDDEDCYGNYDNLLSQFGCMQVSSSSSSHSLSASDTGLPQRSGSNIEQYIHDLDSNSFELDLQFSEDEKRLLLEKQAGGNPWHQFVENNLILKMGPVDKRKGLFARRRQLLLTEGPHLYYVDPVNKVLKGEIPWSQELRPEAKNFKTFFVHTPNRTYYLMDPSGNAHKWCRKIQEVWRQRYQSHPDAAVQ

The target of experiment [6] is Ribosomal protein S6 kinase alpha-3 (Homo sapiens) (UniProt P51812).
Experiment [7] addresses Dual specificity protein kinase CLK1 (Homo sapiens) (UniProt P49759).
Experiment [8] deals with Cyclin-dependent kinase 6 (Homo sapiens) (UniProt Q00534).
For experiment [9], the target named is Mitogen-activated protein kinase 3 (Homo sapiens, UniProt P27361).
Experiment [10] has as its target Serine/threonine-protein kinase OSR1 (Homo sapiens) (UniProt O95747).
The target of experiment [11] is Serine/threonine-protein kinase Nek6 (Homo sapiens) (UniProt Q9HC98).
Experiment [12] deals with Calcium/calmodulin-dependent protein kinase type 1G (Homo sapiens) (UniProt Q96NX5).
Experiment [13] has as its target Calcium/calmodulin-dependent protein kinase type 1D (Homo sapiens) (UniProt Q8IU85).
Experiment [14] has as its target Serine/threonine-protein kinase RIO2 (Homo sapiens) (UniProt Q9BVS4).
Experiment [15] concerns the target Death-associated protein kinase 3 (Homo sapiens) (UniProt O43293).
Experiment [16] deals with T2, Serine/threonine-protein kinase Nek2 (Homo sapiens) (UniProt P51955).
T2 sequence (whole entry): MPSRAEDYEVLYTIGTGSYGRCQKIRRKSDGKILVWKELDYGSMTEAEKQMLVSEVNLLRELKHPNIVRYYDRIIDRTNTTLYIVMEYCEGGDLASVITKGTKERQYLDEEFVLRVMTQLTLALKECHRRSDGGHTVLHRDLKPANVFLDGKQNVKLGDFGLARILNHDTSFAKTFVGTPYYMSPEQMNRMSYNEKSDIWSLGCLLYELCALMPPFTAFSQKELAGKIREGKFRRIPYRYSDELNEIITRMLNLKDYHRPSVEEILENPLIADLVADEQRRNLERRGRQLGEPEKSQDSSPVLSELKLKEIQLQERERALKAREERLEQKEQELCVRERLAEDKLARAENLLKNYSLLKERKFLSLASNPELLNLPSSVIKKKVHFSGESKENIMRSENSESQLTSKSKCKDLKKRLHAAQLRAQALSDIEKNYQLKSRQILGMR

The target of experiment [17] is cAMP-dependent protein kinase catalytic subunit alpha (Homo sapiens) (UniProt P17612).
In experiment [18] the target is T3, Serine/threonine-protein kinase 4 (Homo sapiens) (UniProt Q13043).
T3 sequence (whole entry): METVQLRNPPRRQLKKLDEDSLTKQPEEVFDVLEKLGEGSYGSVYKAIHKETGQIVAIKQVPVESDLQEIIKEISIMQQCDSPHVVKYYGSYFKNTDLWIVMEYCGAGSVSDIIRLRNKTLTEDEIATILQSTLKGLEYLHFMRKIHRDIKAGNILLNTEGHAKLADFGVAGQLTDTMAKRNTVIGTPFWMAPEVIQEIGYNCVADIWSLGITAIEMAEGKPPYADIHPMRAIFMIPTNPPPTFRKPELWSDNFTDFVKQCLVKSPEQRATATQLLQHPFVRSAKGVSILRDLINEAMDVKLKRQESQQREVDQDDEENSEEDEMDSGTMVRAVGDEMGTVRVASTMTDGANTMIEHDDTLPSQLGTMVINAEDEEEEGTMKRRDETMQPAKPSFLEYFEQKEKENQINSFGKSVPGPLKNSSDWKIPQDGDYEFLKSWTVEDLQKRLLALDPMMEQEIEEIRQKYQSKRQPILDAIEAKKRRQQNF

Serine/threonine-protein kinase Nek6 (Homo sapiens), sequence (Q9HC98 whole entry): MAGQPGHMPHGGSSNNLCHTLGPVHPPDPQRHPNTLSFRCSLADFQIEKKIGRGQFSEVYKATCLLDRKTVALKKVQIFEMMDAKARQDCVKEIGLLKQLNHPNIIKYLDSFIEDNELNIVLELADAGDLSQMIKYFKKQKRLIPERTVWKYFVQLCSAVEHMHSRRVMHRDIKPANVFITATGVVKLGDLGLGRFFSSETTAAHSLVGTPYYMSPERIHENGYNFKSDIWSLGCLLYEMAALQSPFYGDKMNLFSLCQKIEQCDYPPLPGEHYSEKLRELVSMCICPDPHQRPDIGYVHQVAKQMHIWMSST
Serine/threonine-protein kinase 38 (Homo sapiens), sequence (Q15208 2-465 limits assumed): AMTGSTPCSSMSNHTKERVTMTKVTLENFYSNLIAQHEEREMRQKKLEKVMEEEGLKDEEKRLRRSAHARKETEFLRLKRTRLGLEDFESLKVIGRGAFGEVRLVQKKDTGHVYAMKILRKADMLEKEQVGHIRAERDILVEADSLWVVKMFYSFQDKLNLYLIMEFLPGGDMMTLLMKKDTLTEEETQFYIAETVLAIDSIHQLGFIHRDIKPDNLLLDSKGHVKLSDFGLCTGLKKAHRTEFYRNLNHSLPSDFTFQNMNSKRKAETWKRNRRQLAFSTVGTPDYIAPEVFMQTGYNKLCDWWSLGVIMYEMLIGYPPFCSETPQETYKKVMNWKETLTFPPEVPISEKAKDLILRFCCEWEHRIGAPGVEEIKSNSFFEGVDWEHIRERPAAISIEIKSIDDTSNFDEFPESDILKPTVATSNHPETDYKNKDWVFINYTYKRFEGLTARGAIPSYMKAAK
STE20-like serine/threonine-protein kinase (Homo sapiens), sequence (Q9H2G2 whole entry, looked up): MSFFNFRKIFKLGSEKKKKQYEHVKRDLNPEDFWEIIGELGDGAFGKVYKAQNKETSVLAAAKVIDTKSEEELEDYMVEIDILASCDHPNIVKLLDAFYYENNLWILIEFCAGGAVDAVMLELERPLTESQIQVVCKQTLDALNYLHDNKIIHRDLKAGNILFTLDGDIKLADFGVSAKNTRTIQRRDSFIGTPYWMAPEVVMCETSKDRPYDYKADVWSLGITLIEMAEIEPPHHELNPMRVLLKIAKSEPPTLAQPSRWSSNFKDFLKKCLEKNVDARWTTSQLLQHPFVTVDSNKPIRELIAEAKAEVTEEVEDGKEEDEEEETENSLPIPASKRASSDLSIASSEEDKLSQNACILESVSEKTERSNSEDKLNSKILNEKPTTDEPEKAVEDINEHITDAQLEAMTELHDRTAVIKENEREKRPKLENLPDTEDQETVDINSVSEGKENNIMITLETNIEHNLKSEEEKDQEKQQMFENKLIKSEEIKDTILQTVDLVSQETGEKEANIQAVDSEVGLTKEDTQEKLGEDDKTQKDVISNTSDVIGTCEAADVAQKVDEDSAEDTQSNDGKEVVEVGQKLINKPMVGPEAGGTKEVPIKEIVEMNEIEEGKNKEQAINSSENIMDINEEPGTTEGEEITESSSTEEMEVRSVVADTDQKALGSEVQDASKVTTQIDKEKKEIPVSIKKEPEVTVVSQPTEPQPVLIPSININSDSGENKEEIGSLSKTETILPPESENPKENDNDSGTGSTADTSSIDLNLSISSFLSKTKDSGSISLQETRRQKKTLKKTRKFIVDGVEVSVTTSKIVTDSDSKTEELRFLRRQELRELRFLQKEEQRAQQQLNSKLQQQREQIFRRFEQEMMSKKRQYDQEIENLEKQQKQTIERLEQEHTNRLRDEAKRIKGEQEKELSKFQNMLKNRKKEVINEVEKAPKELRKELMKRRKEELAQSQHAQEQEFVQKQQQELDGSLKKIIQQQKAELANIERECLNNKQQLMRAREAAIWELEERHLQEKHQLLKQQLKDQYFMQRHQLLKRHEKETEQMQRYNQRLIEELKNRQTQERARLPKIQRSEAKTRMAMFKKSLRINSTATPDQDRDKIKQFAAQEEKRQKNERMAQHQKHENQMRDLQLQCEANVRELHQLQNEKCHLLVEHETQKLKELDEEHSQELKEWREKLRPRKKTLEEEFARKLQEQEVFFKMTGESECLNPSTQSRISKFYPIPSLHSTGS
Calcium/calmodulin-dependent protein kinase type 1G (Homo sapiens), sequence (Q96NX5 whole entry): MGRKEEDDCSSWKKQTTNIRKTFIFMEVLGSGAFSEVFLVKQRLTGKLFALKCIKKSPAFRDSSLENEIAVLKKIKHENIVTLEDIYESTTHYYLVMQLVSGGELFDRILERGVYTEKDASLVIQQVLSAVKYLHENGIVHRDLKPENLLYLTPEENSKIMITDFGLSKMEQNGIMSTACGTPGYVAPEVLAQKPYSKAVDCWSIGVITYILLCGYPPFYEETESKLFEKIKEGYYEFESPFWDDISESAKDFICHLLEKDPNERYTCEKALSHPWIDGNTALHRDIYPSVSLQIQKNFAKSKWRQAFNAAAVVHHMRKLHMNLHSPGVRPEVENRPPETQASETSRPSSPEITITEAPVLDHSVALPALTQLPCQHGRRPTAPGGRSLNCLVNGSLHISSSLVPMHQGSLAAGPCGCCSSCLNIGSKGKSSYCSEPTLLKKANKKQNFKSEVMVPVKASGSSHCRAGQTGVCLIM
Dual specificity protein kinase CLK1 (Homo sapiens), sequence (P49759 whole entry, looked up): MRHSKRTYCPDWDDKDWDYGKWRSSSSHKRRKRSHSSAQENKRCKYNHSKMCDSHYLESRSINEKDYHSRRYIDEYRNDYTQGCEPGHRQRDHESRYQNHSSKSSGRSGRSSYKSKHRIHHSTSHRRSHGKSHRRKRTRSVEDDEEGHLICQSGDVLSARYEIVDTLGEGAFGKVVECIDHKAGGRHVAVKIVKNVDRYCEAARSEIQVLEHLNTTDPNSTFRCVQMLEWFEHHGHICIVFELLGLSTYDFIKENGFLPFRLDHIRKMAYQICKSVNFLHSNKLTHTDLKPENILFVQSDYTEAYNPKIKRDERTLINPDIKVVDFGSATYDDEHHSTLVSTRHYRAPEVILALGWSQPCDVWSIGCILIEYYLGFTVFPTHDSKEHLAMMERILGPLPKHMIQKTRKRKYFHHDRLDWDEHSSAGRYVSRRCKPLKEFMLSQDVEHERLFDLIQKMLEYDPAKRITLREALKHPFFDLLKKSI
Dual specificity mitogen-activated protein kinase kinase 2, sequence (P36507 whole entry): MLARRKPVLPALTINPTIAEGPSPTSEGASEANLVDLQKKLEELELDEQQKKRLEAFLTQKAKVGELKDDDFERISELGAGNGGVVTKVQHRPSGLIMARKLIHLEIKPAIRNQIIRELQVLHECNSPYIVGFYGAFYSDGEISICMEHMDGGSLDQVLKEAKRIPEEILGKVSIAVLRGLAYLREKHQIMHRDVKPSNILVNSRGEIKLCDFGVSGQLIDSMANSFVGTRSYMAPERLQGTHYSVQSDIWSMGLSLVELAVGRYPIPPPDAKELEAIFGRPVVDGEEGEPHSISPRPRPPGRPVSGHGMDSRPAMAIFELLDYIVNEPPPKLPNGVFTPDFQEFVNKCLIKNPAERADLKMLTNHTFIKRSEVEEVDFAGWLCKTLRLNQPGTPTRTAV
Serine/threonine-protein kinase 16 (Homo sapiens), sequence (O75716 whole entry): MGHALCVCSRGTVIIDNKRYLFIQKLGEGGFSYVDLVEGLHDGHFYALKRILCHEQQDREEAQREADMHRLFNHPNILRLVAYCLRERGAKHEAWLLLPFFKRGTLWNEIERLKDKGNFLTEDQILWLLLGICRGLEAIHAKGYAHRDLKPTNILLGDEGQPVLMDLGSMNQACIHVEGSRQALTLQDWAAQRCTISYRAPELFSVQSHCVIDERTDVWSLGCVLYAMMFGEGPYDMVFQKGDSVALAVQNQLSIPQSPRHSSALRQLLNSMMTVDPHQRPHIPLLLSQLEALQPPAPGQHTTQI
Serine/threonine-protein kinase OSR1 (Homo sapiens), sequence (O95747 2-527 limits assumed): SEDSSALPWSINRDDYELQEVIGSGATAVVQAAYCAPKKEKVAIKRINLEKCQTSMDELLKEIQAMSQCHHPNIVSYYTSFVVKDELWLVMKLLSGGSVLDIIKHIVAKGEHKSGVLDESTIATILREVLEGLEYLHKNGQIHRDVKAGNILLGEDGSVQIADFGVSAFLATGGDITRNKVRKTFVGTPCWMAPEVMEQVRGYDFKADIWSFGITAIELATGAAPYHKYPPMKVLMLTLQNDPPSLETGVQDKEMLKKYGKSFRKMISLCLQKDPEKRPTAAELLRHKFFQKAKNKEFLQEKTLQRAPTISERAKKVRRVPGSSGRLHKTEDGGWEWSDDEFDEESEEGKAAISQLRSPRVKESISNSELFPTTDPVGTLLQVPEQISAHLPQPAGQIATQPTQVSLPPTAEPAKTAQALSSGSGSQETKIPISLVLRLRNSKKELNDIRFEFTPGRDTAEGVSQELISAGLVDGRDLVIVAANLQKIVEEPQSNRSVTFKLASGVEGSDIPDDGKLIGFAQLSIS
Calcium/calmodulin-dependent protein kinase type 1D (Homo sapiens), sequence (Q8IU85 whole entry, looked up): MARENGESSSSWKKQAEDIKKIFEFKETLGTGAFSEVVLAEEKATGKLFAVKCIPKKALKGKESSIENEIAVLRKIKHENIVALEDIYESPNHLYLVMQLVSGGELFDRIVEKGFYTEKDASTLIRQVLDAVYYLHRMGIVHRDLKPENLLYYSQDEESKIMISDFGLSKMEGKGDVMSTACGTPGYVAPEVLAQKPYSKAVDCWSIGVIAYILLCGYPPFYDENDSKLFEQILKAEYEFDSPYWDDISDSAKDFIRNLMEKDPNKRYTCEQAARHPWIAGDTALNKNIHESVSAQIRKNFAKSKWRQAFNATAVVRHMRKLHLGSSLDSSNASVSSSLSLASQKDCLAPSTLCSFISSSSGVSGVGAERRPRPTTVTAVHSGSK
Mitogen-activated protein kinase 3, sequence (P27361 whole entry): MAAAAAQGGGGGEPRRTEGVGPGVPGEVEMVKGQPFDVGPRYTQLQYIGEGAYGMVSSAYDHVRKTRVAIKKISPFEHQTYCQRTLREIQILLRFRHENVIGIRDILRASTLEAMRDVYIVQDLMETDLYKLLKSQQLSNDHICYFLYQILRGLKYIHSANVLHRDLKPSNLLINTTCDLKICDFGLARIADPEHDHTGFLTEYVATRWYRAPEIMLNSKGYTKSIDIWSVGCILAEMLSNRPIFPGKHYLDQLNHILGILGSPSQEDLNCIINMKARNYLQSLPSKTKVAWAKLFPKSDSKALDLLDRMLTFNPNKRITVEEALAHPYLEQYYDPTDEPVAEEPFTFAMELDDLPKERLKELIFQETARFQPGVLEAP

As to `CN1CCc2[nH]c(=S)c(C#N)c(-c3cccs3)c2C1`, the ΔTm in experiment [1] is 5.9 °C; in [2], -0.2 °C; in experiment [3], 0.5 °C; in [4], 0.5 °C; in experiment [5], 1.5 °C; in experiment [6] it was 0.7 °C. Further, the ΔTm in experiment [7] was 2.4 °C; in experiment [8] it was 0.1 °C; in experiment [9], 0.6 °C; in experiment [10], 0.8 °C; in experiment [11], 0 °C; in experiment [12], 2.5 °C. Further, the ΔTm in [13] is 1.3 °C; in experiment [14], 0.3 °C; in [15] it was 0.3 °C; in experiment [16], 1 °C; in experiment [17], 14.1 °C.

As for `CC(C)c1nn(-c2c(Cl)cccc2Cl)c2nc(Cc3ccc(OCCO)cc3)[nH]c(=O)c12`, the ΔTm in experiment [1] was -0.5 °C; in experiment [2], 0.4 °C; in [3] it was 1.4 °C; in experiment [4], 0.3 °C; in experiment [5], 0 °C; in experiment [6] it was -0.9 °C. In addition, the ΔTm in experiment [7] worked out at 3.6 °C; in experiment [8], 0.5 °C; in experiment [9], 3.4 °C; in [10], 2.9 °C; in experiment [11] it was 2 °C; in experiment [12] it was 0.3 °C. Further, the ΔTm was 0.1 °C in experiment [13]; 0.1 °C in experiment [14]; 0.1 °C in experiment [18]; 6.2 °C in experiment [15]; 1.5 °C in experiment [16]; -0.1 °C in [17].

For the molecule `CN(c1cccnc1)c1cc2c(Nc3ccc(F)c(Cl)c3)c(C#N)cnc2cn1`, the ΔTm in [1] stood at 4.2 °C; in experiment [2], 2.1 °C; in experiment [3], 8.7 °C; in [4] it was 0.3 °C; in experiment [5], 1.2 °C; in experiment [6], 8.5 °C. The ΔTm in experiment [7] was 4.9 °C; in experiment [8], -0.6 °C; in experiment [9], -1.9 °C; in experiment [10], 0.3 °C; in experiment [11], 1.5 °C; in [12], 2.4 °C. In addition, the ΔTm was 1.9 °C in [13]; 6.1 °C in experiment [14]; 0.4 °C in experiment [18]; 0.7 °C in [15]; 0.7 °C in [16]; 2.2 °C in experiment [17].

On to `COc1ccc(Cl)cc1NC(=O)Nc1cc(C)nc2ccccc12`, for which the ΔTm in [1] worked out at 1.4 °C; in experiment [2] it was 0.2 °C; in [3], 0.4 °C; in experiment [4] it was 0.1 °C; in experiment [5], 3 °C; in experiment [6], 2.2 °C. Besides, the shift in melting temperature (ΔTm) in experiment [7] was found to be 0.5 °C; in experiment [8], 0.4 °C; in [9], 2.5 °C; in experiment [10], 0.6 °C; in [11], 0 °C; in experiment [12], 4.4 °C. Also, the ΔTm in experiment [13] was determined as 2.2 °C; in experiment [14], 0.6 °C; in [15] it was 2.3 °C; in [16] it was 0.3 °C; in experiment [17] it was 4.8 °C.

On to `CC(C)[C@H](CO)Nc1nc(Nc2cc(N)cc(Cl)c2)c2ncn(C(C)C)c2n1` [AMINOPURVALANOL], for which the thermal shift (ΔTm) in experiment [1] was 3.5 °C; in [2] it was 0.1 °C; in experiment [3], 0.2 °C; in experiment [4] it was 0.6 °C; in experiment [5] it was 1.4 °C; in experiment [6], -0.1 °C. In addition, the ΔTm in [7] was 5.5 °C; in experiment [9], 0.2 °C; in experiment [10] it was 2.6 °C; in experiment [11], 0 °C; in experiment [12], 0.5 °C; in experiment [13], 0.7 °C. Further, the ΔTm in experiment [14] came out at 4.5 °C; in [15], 3.4 °C; in experiment [16], 4.8 °C; in experiment [17], 6.5 °C.
